Consider three compounds from patent US12409151B2, “Transdermal device comprising NSAID or analgesic prodrug molecules” (Remedy Diagnostics LLC, priority 2019, dated 2025).

A short description of data set [1]: physchem. Particulars: for solubility: organic solvent or mixture, thermodynamic from solid, solubility in F1. The protocol: This example illustrates the solubilities of APAP, IBU, Pro-APAP, and Pro-IBU in vehicle formulations F1 and F2.
Formulation F1 consisted of 50% Polyethylene Glycol (MW grade: 400) in 50% Ethanol. 50.2 mg of IBU was dissolved in 10.0 mL of F1, to produce a solution with a concentration of 5.02 mg/mL.

Data set [2] is described as follows: Skin permeation across excised human skin (Franz cell), UV-Vis of receptor media. In kind it is in vitro ADME. The protocol:
Skin Permeation Studies: Upon completion of the solubility and stability studies, the ability of the compound to permeate the skin in the selected solvent/vehicle was tested and the rate of permeation was measured to determine whether the compound permeated to an extent relevant for clinical use in a transdermal patch. Specifically, 4-acetoxyacetanilide was assessed for skin permeation across human skin over a 24 h time period.
Methods: For the skin permeation studies, a sample chamber containing 5 mL of 50% Polyethylene glycol 400 in ethanol was used as the receptor media. An initial sample of receptor media was drawn at the onset of testing to test for interferents and subsequent samples of 1 mL each were taken at the following time-points: 0.5 h, 1 h, 2 h, 5 h, 8 h, and 24 h. These samples were analyzed via UV-Vis spectroscopy (Tecan m200 Infinity Multi-Well Plate Reader) for absorbance at 246 nm and were blanked relative to that of the empty vehicle.
Materials: 4-acetoxyacetanilide (Pro-APAP), Formulation Solvent: 50% DMSO in Polyethylene Glycol 400, and Receptor Media: 50% Ethanol in Polyethylene Glycol 400 at 37° C.
Skin permeation studies: Upon completion of the solubility and stability studies, the ability of the pro-IBU compound to permeate the skin in the selected solvent/vehicle was tested and the rate of permeation was measured to determine whether the compound will permeate to an extent relevant for clinical use in a transdermal patch. Specifically, ethyl 2-(4-isobutylphenyl)-propanoate was assessed for skin permeation across human skin over a 24 h time period.
Materials: ethyl 2-(4-isobutylphenyl)-propanoate (pro-IBU), Formulation Solvent: 50% DMSO in Polyethylene Glycol 400, Receptor Media: 50% Ethanol in Polyethylene Glycol 400 at 37° C.

Data set [3] can be described thus: Solutions in permeation enhanced vehicle formulation F3. In kind it is physicochemical. Conditions: F3: 33.3% DMSO and 66.6% ethanol; dissolved in neat ethanol, then DMSO added. The protocol: A permeation enhanced vehicle formulation F3 was developed consisting of 33.3% dimethylsulfoxide (DMSO) and 66.6% ethanol. A solution of Pro-APAP in F3 was prepared by first dissolving 30.5 mg of Pro-APAP into 2 mL neat ethanol, and then slowly adding 1 mL DMSO to reach a 3 mL 10.1 mg/mL solution with a final DMSO concentration of 33.3%.
A solution of Pro-IBU in F3 was prepared by first dissolving 67.0 mg of Pro-IBU into 1 mL neat ethanol, and then slowly adding 0.50 mL DMSO to reach 1.5 mL of a 44.6 mg/mL solution with a final DMSO concentration of 33.3%.

A short description of data set [4]: Stability of prodrugs in vehicle F3, monitored visually. In kind it is physicochemical. The protocol:
This example evaluated the stability of each of the prodrugs in vehicle F3.
A 50 mg/ml solution of Pro-APAP in F3 was prepared and monitored visually for three months to check for stability. […] was determined to be stable in this solution for the duration of the experiment.
A 70 mg/ml solution of Pro-IBU in F3 was prepared and monitored visually for three months to check for stability. […] was determined to be stable in this solution for the duration of the experiment.

For data set [5] the following is noted: cited from earlier work.
Where [6] appears, read: 5 Hr, cumulative mass into receptor media, excised human skin, Franz cell 0.64 cm^2, 37° C.
Setting [7] is: 8 Hr, cumulative mass into receptor media, excised human skin, Franz cell 0.64 cm^2, 37° C.
[8] abbreviates: 24 Hr, cumulative mass into receptor media, excised human skin, Franz cell 0.64 cm^2, 37° C.
Setting [9] is: 24 h, excised human skin, Franz cell, 37° C., 50% DMSO in PEG 400.

By solubility is commonly meant the concentration that dissolves in the medium under given conditions.

Structures are written as SMILES. ≈ marks a conversion by molar mass, not a printed value. Where “and” joins values, the source holds several entries; their conditions need not be identical. Equal entries are not always repeated. Where two headings read alike, the source gives them in different places.

`CC(=O)Nc1ccc(O)cc1` [APAP, acetaminophen, reference compound]: the solubility in data set [1] amounted to 12.8 mg/mL (≈ 84.7 mM).

For the compound `CC(=O)Nc1ccc(OC(C)=O)cc1` [Pro-APAP, 4-acetoxyacetanilide], the “Maximum (mass released)” value in data set [2] (setting [6]) is 10.8 µg and 10.88 µg; in data set [2] (setting [7]), 15.34 µg; in data set [2] (setting [8]) it was 91.94 µg and 91.95 µg. In addition, the “Minimum (mass released)” value turned out to be 4.73 µg in data set [2] (setting [6]), 10.04 µg in data set [2] (setting [7]) and 55.45 µg in data set [2] (setting [8]). Also, the “Average Mass Released” value in data set [2] (5 Hr, cumulative mass into receptor media, excised human skin, Franz cell 0.64 cm^2, 37° C., 50% DMSO in PEG 400) was 7.15 µg and 7.16 µg; in data set [2] (8 Hr, cumulative mass into receptor media, excised human skin, Franz cell 0.64 cm^2, 37° C., 50% DMSO in PEG 400), 12.20 µg; in data set [2] (24 Hr, cumulative mass into receptor media, excised human skin, Franz cell 0.64 cm^2, 37° C., 50% DMSO in PEG 400), 76.15 µg and 76.16 µg. Moreover, the “concentration of Pro-APAP in receptor media, maximum” value in data set [2] (setting [9]) came to 15.78 µg/mL. In addition, the “concentration of Pro-APAP in receptor media, minimum” value in data set [2] (setting [9]) amounted to 8.76 µg/mL. In addition, the “concentration of Pro-APAP in receptor media, average” value in data set [2] (24 h, excised human skin, Franz cell, 37° C., formulation solvent 50% DMSO in PEG 400, receptor 50% ethanol in PEG 400, blank subtracted) was 12.36 µg/mL. For the same compound, the “permeability (permeation) coefficient range” value in data set [2] (calculated, human skin, 24 h study, 50% DMSO in PEG 400) is 3.61-5.98 μg/h/cm^2. Besides, in data set [2] (human skin over 24 h, 50% DMSO in PEG 400), the “total cumulative amount permeated” value is given as “around 80 μg per 0.66 cm^2”. For the same compound, in data set [1], the “solubility in F1” value turned out to be 12.5 mg/mL (≈ 64.7 mM). Besides, the “concentration of solution prepared in F3” value in data set [3] is 10.1 mg/mL. Also, the “stability in solution in F3” value in data set [4] (50 mg/ml solution in F3, monitored visually for three months) was “stable”; in data set [4] (70 mg/ml solution of Pro-IBU in F3, monitored visually for three months), “stable”. In data set [5] (in chloroform, DMSO, and methanol), the solubility entry is given as “slightly soluble”.

As for `CCOC(=O)C(C)c1ccc(CC(C)C)cc1` (stereo not drawn) [Pro-IBU, ethyl 2-(4-isobutylphenyl)-propanoate], the “permeability (permeation) coefficient range” value in data set [2] is listed as 33.32-65.47 μg/h/cm^2. In data set [2] (human), the lag time fell in the range of 2 to 5 h. In addition, in data set [2] (human, 5 h), the “Average Mass Released” value was found to be 18.06 µg, the “Maximum (mass released)” value is 54.17 µg, the “Minimum (mass released)” value was found to be 0.00 µg and the “mass detected in one of the wells” value was determined as 54 µg. Besides, in data set [2] (human, 8 h), the “Average Mass Released” value worked out at 25.50 µg, the “Maximum (mass released)” value is 70.83 µg and the “Minimum (mass released)” value was 0.00 µg. Also, in data set [2] (human, 24 h), the “concentration of Pro-IBU in the receptor media” value is about 200 µg/mL. The solubility in data set [1] was at least 24.9 mg/mL. Further, the “concentration of solution prepared in F3” value in data set [3] amounted to 44.6 mg/mL. The solubility entry in data set [5] (in DMSO and ethanol) is on record as “soluble”.
